These results are taken from patent publication US5834012A, “Lipid complexed topoisomerase I inhibitors” (Perez-Soler; Roman, priority 1995, dated 1998).

Where a name gives a salt, the structure may show the parent alone.

The nature of data set [1]: Chromatographic evaluation of CPT in the liposome fraction. The format is physicochemical. Particulars: lipid used alone. The protocol: Chromatography. A 30 cm agarose 0.5M column is used to separate liposome-bound drug from free CPT. PBS is used as the mobile phase for all preparations. Twenty samples were collected in 3 mL aliquots for a total of 60 mLs. Fluorescence and scintigraphy were used to detect encapsulated and free drug. Fluorimetry. Aliquots of 20 μl from each collection tube were transferred to cuvets containing 2 ml methanol. Fluorimetry was performed as described by Hart et al. (Hart et al., 1969). Fluorescence was measured at an excitation wavelength of 370 nm and emission wavelength of 434 nm (Perkin-Elmer MPF44A, Norwalk, Conn., U.S.A.). Two ml of ethanol was used as a control for machine calibration.
Chromatographic evaluation confirmed that <5% of CPT was incorporated in the liposome fraction of the preparation, the rest presumably being solubilized or in small particles not detectable by fluorescence microscopy.
These observation led the present inventors to other negatively charged lipids. […] Chromatographic evaluation of these preparations confirmed again that <5% of CPT eluted with the liposome fraction, the rest of the drug eluting later in a large number of consecutive fractions. By differential centrifugation, the lipid-binding efficiency of cardiolipin was about 67% and that of DO-NGPE 97%. DO-NGPE-CPT was, therefore, selected for further biological and pharmacological studies.

Data set [2] in a line: Lipids screened for complexation with CPT (fluorescent microscopy; % bound). Particulars: for % bound to CPT / Crystals: Table 1; for Crystals: lipid alone with CPT, fluorescent microscopy. The format is physicochemical. The text has this:
(§1) In order to prepare LC-CPT (a liposomal preparation containing CPT within spherical lipid vesicles) various individual lipids were screened for complexation with CPT. […] CPT crystals and lipid/CPT complexes of >0.4 microns can be visualized under a fluorescent microscope (since CPT fluoresces due to its rigid ring structure). […] Therefore, the better a lipid complexes with CPT the less CPT crystals are formed, and the more lipid/CPT complexes are formed.
Drug/lipid Complex Preparation. CPT was mixed in ratios of from 2:1 to 25:1 w/w lipid:drug in chloroform-methanol (8:1). For studies where CPT was radiolabeled, approximately 0.02 uCi/ml [^3 H] CPT was added to the preparation. Trace quantities of ^14 C labeled cholesterol was added to samples requiring lipid labeling. For small samples, the lipids were dried in 12×75 mm culture tubes under a stream of nitrogen gas. For large samples, a rotavapor (Buchi RE140, Switzerland) was used to dry lipids in a 100 to 1000 ml round bottom flasks. […] For liposomal CPT 0.9% Nace was used. Preparations were screened for lipid entrapment by light and fluorescent microscopy (Nikon Labophot-2, Japan). […]
Lipids of varying carbon chain length, charge, and saturation, alone or in different combinations, were empirically screened for their ability to form liposomes incorporating CPT by fluorescent microscopy.

Data set [3] can be described thus: Complexation with CPT / liposome formation by fluorescent microscopy. The format is physicochemical.
From the text: as §1
Drug/lipid Complex Preparation. CPT was mixed in ratios of from 2:1 to 25:1 w/w lipid:drug in chloroform-methanol (8:1). For studies where CPT was radiolabeled, approximately 0.02 uCi/ml [^3 H] CPT was added to the preparation. Trace quantities of ^14 C labeled cholesterol was added to samples requiring lipid labeling. For small samples, the lipids were dried in 12×75 mm culture tubes under a stream of nitrogen gas. For large samples, a rotavapor (Buchi RE140, Switzerland) was used to dry lipids in a 100 to 1000 ml round bottom flasks. The lipophilic film was then vortexed in a Touch Mixer Model 231 (Fisher Scientific, Fair Lawn, N.J., U.S.A.) for one minute in sterile phosphate buffered saline (pH 7.4). For liposomal CPT 0.9% Nace was used. Preparations were screened for lipid entrapment by light and fluorescent microscopy (Nikon Labophot-2, Japan).
To increase the cytotoxic effects of LC-CPT relative to CPT, lipid must surround (encapsulate) the CPT to protect it from inactivation. Since the cytotoxicity of LC-CPT was similar to that of the free drug, the CPT was not encapsulated by the lipid (DO-NGPE). Encapsulation (and concomitant protection from inactivation) can be accomplished by surrounding CPT in a liposome (a unilamellar or multilamellar structure). […] Therefore, LC-CPT appears to only contain enough lipid to form micellar aggregates of CPT or to form a hydrophobic scaffold for CPT-CPT aggregation.
The inventors attempted to protect the CPT from inactivation by surrounding the existing DO-NGPE:CPT complex with a liposome (Table 3) or by adding another lipid to DO-NGPE to form a liposome. […]

For data set [4] the following is noted: Hertzberg et al., 1989; cited from earlier work.
The subject of another data set is human tumors. Particulars: cited from earlier work.

In the case of `CCCCCCCC/C=C\CCCCCCCC(=O)OC[C@H](COP(=O)(O)OCC(O)CO)OC(=O)CCCCCCC/C=C\CCCCCCCC` (mixture of isomers) [Dioleoyl PG, 1,2-Dioleoyl-sn-Glycero-3-[Phospho-rac-(1-glycerol)]], the “CPT incorporated in / eluted with the liposome fraction” value in data set [1] is reported as below 5%. In addition, in data set [2], the “interaction with CPT (in words)” value was “lack of drug crystallization”, the “% bound to CPT” value is listed as below 5% and the Crystals entry was “no”.
As for `CCCCCCCCCCCCCCCCCC(=O)OC[C@H](COP(=O)([O-])OCC[N+](C)(C)C)OC(=O)CCCCCCCCCCCCC` [1-Stearoyl, 2-Myristdyl PC], in data set [2], the “% bound to CPT” value is listed as below 5% and the Crystals result is “yes”.
Turning to `CCCCCCCC/C=C/CCCCCCCC(=O)OC[C@H](COP(=O)([O-])OCC[N+](C)(C)C)OC(=O)CCCCCCC/C=C/CCCCCCCC` [Dielaidoyl PC], the “complexation with CPT / liposome formation / CPT crystals (in words)” value in data set [3] was “complex well with CPT”.
As for `CCCCCC(=O)OC[C@H](COP(=O)([O-])OCC[N+](C)(C)C)OC(=O)CCCCC` [Dicaproyl PC], in data set [2], the “% bound to CPT” value is on record as below 5% and the Crystals entry is listed as “yes”.
For `CCCCCCCC/C=C\CCCCCCCC(=O)OC[C@H](COP(=O)(O)OCCN)OC(=O)CCCCCCC/C=C\CCCCCCCC` [DOPE, 1,2-Dioleoyl-sn-Glycero-3-Phosphoethanolamine], in data set [3], the “complexation with CPT / liposome formation / CPT crystals (in words)” value is reported as “complex well with CPT”.
Regarding `CC[C@@](O)(C(=O)O)c1cc2n(c(=O)c1CO)Cc1cc3ccccc3nc1-2` [sodium salt of CPT, camptothecin sodium], in data set [4], the “activity relative to closed lactone ring base (in words)” value was “significantly less active than the lipophilic base compound”. Besides, the dose-limiting toxicity result in the data set with human tumors (clinical trials, early 1970's) was “dose-limiting leukopenia, cystitis, and gastroenteritis”. Besides, the “clinical antitumor activity (in words)” value with human tumors (intestinal tumors metastatic to the liver) is recorded as “demonstrated activity in human tumors”.
On to `CCCCCCCCCCCCCCCCCC(=O)OC[C@H](COP(=O)([O-])OCC[N+](C)(C)C)OC(=O)CCCCCCCCCCCCCCCCC` [Distearoyl PC], for which, in data set [2], the “% bound to CPT” value is reported as below 5% and the Crystals entry is listed as “yes”.
The matching figures for `CCCCCCCCCCCCCC(=O)OC[C@H](COP(=O)(O)OCC(O)CO)OC(=O)CCCCCCCCCCCCC` (mixture of isomers) [Dimyristoyl PG, 1,2-Dimyristoyl-sn-Glycero-3-[Phospho-rac-(1-glycerol)]]: below 5% and “yes”.
`CCCCCCCCCCCCCC(=O)OC[C@H](COP(=O)([O-])OCC[N+](C)(C)C)OC(=O)CCCCCCCCCCCCC` [Dimyristoyl PC, 1,2-Dimyristoyl-sn-Glycero-3-Phosphocholine]: in data set [2], the “% bound to CPT” value is below 5% and the Crystals entry is “yes”.
In the case of `CCCCCCCC/C=C\CCCCCCCC(=O)OCC(C[N+](C)(C)C)OC(=O)CCCCCCC/C=C\CCCCCCCC` (stereo not shown) [DOTAP, 1,2-Dioleoyl-3-Trimethylammonium-Propane], in data set [3], the “complexation with CPT / liposome formation / CPT crystals (in words)” value is on record as “complex well with CPT”.
For `CCCCCCCC/C=C\CCCCCCCC(=O)O[C@H](COC(=O)CCCCCCCCCCCCCCCCC)COP(=O)([O-])OCC[N+](C)(C)C` [1-Stearoyl, 2-Oleoyl PC], in data set [2], the “% bound to CPT” value is on record as below 5% and the Crystals result is recorded as “yes”.
